The NIST ThermoML archive (doi:10.1021/je9008156)
± gives the expanded uncertainty stated by the source.

Settings: Crystal; visual observation

## Nc1c(I)c(C(=O)NCC(O)CO)c(I)c(C(=O)NCC(O)CO)c1I (stereo unspecified)
  Normal melting temperature: 193.00 ± 0.5 °C
